Reference: ChEMBL document CHEMBL1201862, “PubChem BioAssay data set” (2004)
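Growth conditions: 96-well plates. Treatment: test compound, 48 hours, 5 concentrations. Analysis: linear interpolation between bracketing concentrations; unreached endpoints set to highest concentration. GI50: concentration for 50% inhibition of growth.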 Activity calls are given as the source filed them. No stated cut-off is given here; in the data, active = GI50 up to about 1.1 µM and inactive = higher. Residues, ends and D or L forms follow the SMILES beside them. *: point of attachment. Boc = CC(C)(C)OC(=O)*; OBn = c1ccc(CO*)cc1

How the values were obtained:
Assay in all cases: NCI anticancer screen, dose series, 48 h
[1] = tested on: SW-620
[2] = tested on: SF-295
[3] = tested on: SF-539
[4] = tested on: Hs-578T
[5] = tested on: RXF 393
[6] = tested on: SK-OV-3
[7] = tested on: SF-268
[8] = tested on: SK-MEL-5
[9] = tested on: LOX IMVI
[10] = tested on: NCI-H226
[11] = tested on: M14
[12] = tested on: Malme-3M
[13] = tested on: MOLT-4
[14] = tested on: U-251
[15] = tested on: PC-3
[16] = tested on: CAKI-1
[17] = tested on: MCF7
[18] = tested on: ACHN
[19] = tested on: HCC 2998
[20] = tested on: UO-31

Structure (SMILES) | GI50 [1] | GI50 [2] | GI50 [3] | GI50 [4] | GI50 [5] | GI50 [6] | GI50 [7] | GI50 [8] | GI50 [9] | GI50 [10] | GI50 [11] | GI50 [12] | GI50 [13] | GI50 [14] | GI50 [15] | GI50 [16] | GI50 [17] | GI50 [18] | GI50 [19] | GI50 [20]
CC[C@@]1(O)C(=O)OCc2c1cc1n(c2=O)Cc2cc3c(OC)cccc3nc2-1 | 0.196 µM (active) | < 0.1 µM (active) | < 0.1 µM (active) | 12.8 µM (inactive) | 0.308 µM (active) | 0.117 µM (active) | < 0.1 µM (active) | 0.116 µM (active) | < 0.1 µM (active) | 0.267 µM (active) | 0.2 µM (active) | 0.348 µM (active) | 0.14 µM (active) | – | – | – | – | – | – | –
O=C(CC(C(=O)c1ccsc1)c1cccs1)c1ccsc1 (stereo not drawn) | > 100 µM (inactive) | 43.7 µM (inactive) | – | – | – | 54.6 µM (inactive) | 85.9 µM (inactive) | 31.4 µM (inactive) | 34.1 µM (inactive) | > 100 µM (inactive) | 56 µM (inactive) | 56.8 µM (inactive) | 28.5 µM (inactive) | > 100 µM (inactive) | 28.5 µM (inactive) | > 100 µM (inactive) | 39 µM (inactive) | 42 µM (inactive) | > 100 µM (inactive) | 25.8 µM (inactive)
CC(=O)c1sc(Nc2ccc(Cl)c(Cl)c2)nc1C | > 100 µM (inactive) | 35.1 µM (inactive) | > 100 µM (inactive) | – | 55.3 µM (inactive) | > 100 µM (inactive) | > 100 µM (inactive) | > 100 µM (inactive) | > 100 µM (inactive) | 78 µM (inactive) | – | > 100 µM (inactive) | 14.8 µM (inactive) | > 100 µM (inactive) | – | 74.3 µM (inactive) | 37.9 µM (inactive) | 70.6 µM (inactive) | > 100 µM (inactive) | > 100 µM (inactive)
C[C@@H](c1ccccc1)n1c(N)c(C#N)c2ccc([N+](=O)[O-])cc2c1=O | 19.1 µM (inactive) | – | – | 18.2 µM (inactive) | – | – | 29.7 µM (inactive) | 16.7 µM (inactive) | 14.2 µM (inactive) | 1.68 µM (inactive) | – | – | – | 18.7 µM (inactive) | > 100 µM (inactive) | 15.1 µM (inactive) | – | 14.9 µM (inactive) | 15.5 µM (inactive) | 5.12 µM (inactive)
CC(C)C(NC(=O)C(Cc1ccccc1)NC(=O)OC(C)(C)C)C(=O)NCC(=O)OCc1ccccc1 (stereo not drawn) (Boc-Phe-Val-Gly-OBn; configuration not given here) | 14.3 µM (inactive) | 18.6 µM (inactive) | 25.3 µM (inactive) | – | – | 13.4 µM (inactive) | 14.7 µM (inactive) | – | 14.9 µM (inactive) | – | 20.9 µM (inactive) | 18.5 µM (inactive) | 18.5 µM (inactive) | 17.6 µM (inactive) | 15.7 µM (inactive) | 18.8 µM (inactive) | > 10 µM (inactive) | 17.5 µM (inactive) | 17.8 µM (inactive) | 21.7 µM (inactive)
CNC(=S)NNc1ncnc2c1c(-c1ccc(Cl)cc1)cn2-c1ccc(C)cc1 | 6.67 µM (inactive) | 6.05 µM (inactive) | 16 µM (inactive) | 20.9 µM (inactive) | 16.4 µM (inactive) | 15 µM (inactive) | 10.2 µM (inactive) | 5.89 µM (inactive) | 9.38 µM (inactive) | 24.6 µM (inactive) | 12.6 µM (inactive) | 13.1 µM (inactive) | 3.85 µM (inactive) | 11.1 µM (inactive) | 5.45 µM (inactive) | 8.07 µM (inactive) | – | 10 µM (inactive) | – | 10.9 µM (inactive)
CC(=O)O[C@H]1C(=O)[C@@]2(C)C(C(OC(=O)c3ccccc3)C3[C@@H](O)C(OC(=O)[C@@H](O)[C@H](NC(=O)c4ccccc4)c4ccc(C(F)(F)F)cc4)C(C)=C1C3(C)C)[C@]1(OC(C)=O)CO[C@@H]1C[C@@H]2O (stereo partly drawn) | 8 µM (inactive) | > 25 µM (inactive) | 9.98 µM (inactive) | – | 14.3 µM (inactive) | > 25 µM (inactive) | > 25 µM (inactive) | 8.26 µM (inactive) | 16.1 µM (inactive) | > 25 µM (inactive) | > 25 µM (inactive) | > 25 µM (inactive) | 11 µM (inactive) | 13.3 µM (inactive) | – | > 25 µM (inactive) | – | > 25 µM (inactive) | 16.2 µM (inactive) | 18.1 µM (inactive)
CC(C)=Nn1cnc(C(=N)C#N)c1N | > 100 µM (inactive) | 29.4 µM (inactive) | > 100 µM (inactive) | – | > 100 µM (inactive) | > 100 µM (inactive) | > 100 µM (inactive) | > 10 µM (inactive) | – | > 100 µM (inactive) | > 100 µM (inactive) | > 100 µM (inactive) | > 100 µM (inactive) | > 100 µM (inactive) | > 100 µM (inactive) | > 100 µM (inactive) | > 100 µM (inactive) | > 100 µM (inactive) | > 100 µM (inactive) | > 100 µM (inactive)
